Experimental data from patent US8956999B2, “Herbicides” (Syngenta Limited, priority 2007, dated 2015).

What was measured:
Format in all cases: in vivo
[1] = tested on: Alopecurus myosuroides (ALOMY); assay: Example B pre-emergence herbicidal test, glasshouse; details: 312 h, rate 250 g/ha, evaluated after 13 days, 100=total damage to plant, 0=no damage to plant
Method: (§1) Seeds of a variety of test species were sown in standard soil in pots. After cultivation for one day (pre-emergence) or after 8 days cultivation (post-emergence) under controlled conditions in a glasshouse (at 24/16° C., day/night; 14 hours light; 65% humidity), the plants were sprayed with an aqueous spray solution derived from the formulation of the technical active ingredient in acetone/water (50:50) solution containing 0.5% Tween 20 (polyoxyethelyene sorbitan monolaurate, CAS RN 9005-64-5). The test plants were then grown in a glasshouse under controlled conditions in a glasshouse (at 24/16° C., day/night; 14 hours light; 65% humidity) and watered twice daily. After 13 days for pre and post-emergence, the test was evaluated (100=total damage to plant; 0=no damage to plant). Test Plants: Alopecurus myosuroides (ALOMY), Avena fatua (AVEFA), Setaria faberi (SETFA), Echinochloa crus-galli (ECHCG), Solanum nigrum (SOLNI) and Amaranthus retoflexus (AMARE)

[2] = tested on: Amaranthus retoflexus (AMARE); assay: as above; details: Amaranthus retroflexus, 312 h, rate 250 g/ha, evaluated after 13 days, 100=total damage to plant, 0=no damage to plant
Method: as §1

Avena fatua (AVEFA) [3] = assay: as above; details: 312 h, rate 250 g/ha, evaluated after 13 days, 100=total damage to plant, 0=no damage to plant
Method: as §1

[4] = tested on: Echinochloa crus-galli (ECHCG); assay: as above; details: Echinochloa crus-galli, 312 h, rate 250 g/ha, evaluated after 13 days, 100=total damage to plant, 0=no damage to plant, read-out: Pre-Emergence Activity ECHGG
Method: as §1

Setaria faberi (SETFA) [5] = assay: as above; details: Setaria faberi, 312 h, rate 250 g/ha, evaluated after 13 days, 100=total damage to plant, 0=no damage to plant, read-out: Pre-Emergence Activity SEFTA
Method: as §1

[6] = tested on: Alopecurus myosuroides (ALOMY); assay: Example B post-emergence herbicidal test, glasshouse; details: 312 h, rate 250 g/ha, evaluated after 13 days, read-out: Post-Emergence Activity ALOMY (100=total damage to plant; 0=no damage to plant)
Method: as §1

[7] = tested on: Amaranthus retoflexus (AMARE); assay: as above; details: Amaranthus retroflexus, 312 h, rate 250 g/ha, evaluated after 13 days, read-out: Post-Emergence Activity AMARE (100=total damage to plant; 0=no damage to plant)
Method: as §1

Avena fatua (AVEFA) [8] = assay: as above; details: 312 h, rate 250 g/ha, evaluated after 13 days, read-out: Post-Emergence Activity AVEFA (100=total damage to plant; 0=no damage to plant)
Method: as §1

[9] = tested on: Echinochloa crus-galli (ECHCG); assay: as above; details: 312 h, rate 250 g/ha, evaluated after 13 days, read-out: Post-Emergence Activity ECHGG (100=total damage to plant; 0=no damage to plant)
Method: as §1

Setaria faberi (SETFA) [10] = assay: as above; details: 312 h, rate 250 g/ha, evaluated after 13 days, read-out: Post-Emergence Activity SEFTA (100=total damage to plant; 0=no damage to plant)
Method: as §1

**Q.** What does the source list for `CCc1sc(-c2ccc(Br)cc2F)nc1C1C(=O)C(C)(C)OC(C)(C)C1=O` [Compound T54]?
**A.** pest or weed control at 250 g/ha [1]: 100%; pest or weed control at 250 g/ha [2]: 20%; pest or weed control at 250 g/ha (Avena fatua (AVEFA) [3]): 90%; pest or weed control at 250 g/ha [4]: 100%; pest or weed control at 250 g/ha (Setaria faberi (SETFA) [5]): 100%; pest or weed control at 250 g/ha [6]: 100%; pest or weed control at 250 g/ha [7]: 0%; pest or weed control at 250 g/ha (Avena fatua (AVEFA) [8]): 100%; pest or weed control at 250 g/ha [9]: 100%; pest or weed control at 250 g/ha (Setaria faberi (SETFA) [10]): 100%

**Q.** For `Cc1sc(-c2ccc(Cl)s2)nc1C1C(=O)C(C)(C)OC(C)(C)C1=O` [Compound T55], which pest or weed control at 250 g/ha [1] is on record?
**A.** The pest or weed control at 250 g/ha was 0%.

**Q.** What about the pest or weed control at 250 g/ha [2] of the same molecule?
**A.** The pest or weed control at 250 g/ha was 0%.

**Q.** And the pest or weed control at 250 g/ha (Avena fatua (AVEFA) [3])?
**A.** Its pest or weed control at 250 g/ha is 0%.

**Q.** And the pest or weed control at 250 g/ha [4]?
**A.** The pest or weed control at 250 g/ha was 20%.

**Q.** What about the pest or weed control at 250 g/ha (Setaria faberi (SETFA) [5]) of the same molecule?
**A.** The pest or weed control at 250 g/ha was 50%.

**Q.** And the pest or weed control at 250 g/ha [6]?
**A.** Its pest or weed control at 250 g/ha is 40%.

**Q.** And the pest or weed control at 250 g/ha [7]?
**A.** Its pest or weed control at 250 g/ha is 0%.

**Q.** And the pest or weed control at 250 g/ha (Avena fatua (AVEFA) [8])?
**A.** Its pest or weed control at 250 g/ha is 0%.

**Q.** And the pest or weed control at 250 g/ha [9]?
**A.** The pest or weed control at 250 g/ha was 70%.

**Q.** What about the pest or weed control at 250 g/ha (Setaria faberi (SETFA) [10]) of the same molecule?
**A.** Its pest or weed control at 250 g/ha is 60%.

**Q.** Which results are given for `Cc1sc(-c2ccc(Br)cn2)nc1C1C(=O)C(C)(C)OC(C)(C)C1=O` [Compound T56]?
**A.** pest or weed control at 250 g/ha [1]: 0%; pest or weed control at 250 g/ha [2]: 0%; pest or weed control at 250 g/ha (Avena fatua (AVEFA) [3]): 0%; pest or weed control at 250 g/ha [4]: 10%; pest or weed control at 250 g/ha (Setaria faberi (SETFA) [5]): 20%; pest or weed control at 250 g/ha [6]: 30%; pest or weed control at 250 g/ha [7]: 0%; pest or weed control at 250 g/ha (Avena fatua (AVEFA) [8]): 20%; pest or weed control at 250 g/ha [9]: 80%; pest or weed control at 250 g/ha (Setaria faberi (SETFA) [10]): 90%

**Q.** How did the pest or weed control at 250 g/ha [1] turn out when `CCc1sc(-c2ccc(Br)cc2C)nc1C1C(=O)C(C)(C)OC(C)(C)C1=O` [Compound T57] was run?
**A.** Its pest or weed control at 250 g/ha is 20%.

**Q.** What about the pest or weed control at 250 g/ha [2] of the same molecule?
**A.** The pest or weed control at 250 g/ha was 0%.

**Q.** What about the pest or weed control at 250 g/ha (Avena fatua (AVEFA) [3]) of the same molecule?
**A.** The pest or weed control at 250 g/ha was 30%.

**Q.** And the pest or weed control at 250 g/ha [4]?
**A.** The pest or weed control at 250 g/ha was 50%.

**Q.** What about the pest or weed control at 250 g/ha (Setaria faberi (SETFA) [5]) of the same molecule?
**A.** Its pest or weed control at 250 g/ha is 90%.

**Q.** And the pest or weed control at 250 g/ha [6]?
**A.** The pest or weed control at 250 g/ha was 100%.

**Q.** And the pest or weed control at 250 g/ha [7]?
**A.** The pest or weed control at 250 g/ha was 0%.

**Q.** What about the pest or weed control at 250 g/ha (Avena fatua (AVEFA) [8]) of the same molecule?
**A.** The pest or weed control at 250 g/ha was 90%.

**Q.** And the pest or weed control at 250 g/ha [9]?
**A.** The pest or weed control at 250 g/ha was 100%.

**Q.** What about the pest or weed control at 250 g/ha (Setaria faberi (SETFA) [10]) of the same molecule?
**A.** Its pest or weed control at 250 g/ha is 100%.

**Q.** What does the source list for `Cc1cc(Br)ccc1-c1nc(C2C(=O)C(C)(C)OC(C)(C)C2=O)c(C)s1` [Compound T58]?
**A.** pest or weed control at 250 g/ha [1]: 0%; pest or weed control at 250 g/ha [2]: 20%; pest or weed control at 250 g/ha (Avena fatua (AVEFA) [3]): 0%; pest or weed control at 250 g/ha [4]: 50%; pest or weed control at 250 g/ha (Setaria faberi (SETFA) [5]): 100%; pest or weed control at 250 g/ha [6]: 90%; pest or weed control at 250 g/ha [7]: 0%; pest or weed control at 250 g/ha (Avena fatua (AVEFA) [8]): 80%; pest or weed control at 250 g/ha [9]: 100%; pest or weed control at 250 g/ha (Setaria faberi (SETFA) [10]): 100%

**Q.** What does the source list for `Cc1sc(COc2ccc(Cl)cc2)nc1C1C(=O)C(C)(C)OC(C)(C)C1=O` [Compound T59]?
**A.** pest or weed control at 250 g/ha [1]: 0%; pest or weed control at 250 g/ha [2]: 0%; pest or weed control at 250 g/ha (Avena fatua (AVEFA) [3]): 0%; pest or weed control at 250 g/ha [4]: 0%; pest or weed control at 250 g/ha (Setaria faberi (SETFA) [5]): 0%; pest or weed control at 250 g/ha [6]: 30%; pest or weed control at 250 g/ha [7]: 0%; pest or weed control at 250 g/ha (Avena fatua (AVEFA) [8]): 0%; pest or weed control at 250 g/ha [9]: 70%; pest or weed control at 250 g/ha (Setaria faberi (SETFA) [10]): 30%

**Q.** What does the source list for `Cc1sc(-c2ccc(OC(F)F)cc2)nc1C1C(=O)C(C)(C)OC(C)(C)C1=O` [Compound T60]?
**A.** pest or weed control at 250 g/ha [1]: 40%; pest or weed control at 250 g/ha [2]: 0%; pest or weed control at 250 g/ha (Avena fatua (AVEFA) [3]): 0%; pest or weed control at 250 g/ha [4]: 20%; pest or weed control at 250 g/ha (Setaria faberi (SETFA) [5]): 70%; pest or weed control at 250 g/ha [6]: 50%; pest or weed control at 250 g/ha [7]: 0%; pest or weed control at 250 g/ha (Avena fatua (AVEFA) [8]): 40%; pest or weed control at 250 g/ha [9]: 90%; pest or weed control at 250 g/ha (Setaria faberi (SETFA) [10]): 90%

**Q.** For `CCc1sc(-c2ccc(Cl)cc2C)nc1C1C(=O)C(C)(C)OC(C)(C)C1=O` [Compound T61], which pest or weed control at 250 g/ha [1] is on record?
**A.** The pest or weed control at 250 g/ha was 80%.

**Q.** What about the pest or weed control at 250 g/ha [2] of the same molecule?
**A.** The pest or weed control at 250 g/ha was 0%.

**Q.** And the pest or weed control at 250 g/ha (Avena fatua (AVEFA) [3])?
**A.** Its pest or weed control at 250 g/ha is 0%.

**Q.** What about the pest or weed control at 250 g/ha [4] of the same molecule?
**A.** Its pest or weed control at 250 g/ha is 100%.

**Q.** And the pest or weed control at 250 g/ha (Setaria faberi (SETFA) [5])?
**A.** The pest or weed control at 250 g/ha was 100%.

**Q.** What about the pest or weed control at 250 g/ha [6] of the same molecule?
**A.** The pest or weed control at 250 g/ha was 90%.

**Q.** What about the pest or weed control at 250 g/ha [7] of the same molecule?
**A.** Its pest or weed control at 250 g/ha is 0%.

**Q.** And the pest or weed control at 250 g/ha (Avena fatua (AVEFA) [8])?
**A.** The pest or weed control at 250 g/ha was 70%.

**Q.** What about the pest or weed control at 250 g/ha [9] of the same molecule?
**A.** The pest or weed control at 250 g/ha was 100%.

**Q.** What about the pest or weed control at 250 g/ha (Setaria faberi (SETFA) [10]) of the same molecule?
**A.** Its pest or weed control at 250 g/ha is 90%.
